Values quoted from earlier work in PMC6340882, “Targeting protein kinase CK2 and CDK4/6 pathways with a multi-kinase inhibitor ON108110 suppresses pro-survival signaling and growth in mantle cell lymphoma and T-acute lymphoblastic leukemia” (Oncotarget, 2018).

Tested on: mantle cell lymphoma
Design: method as in PMID 22383795
Details: monotherapy for MCL, patients; cited from earlier work

Compound: CC(=O)c1c(C)c2cnc(Nc3ccc(N4CCNCC4)cn3)nc2n(C2CCCC2)c1=O [Palbociclib]
- overall response rate: 18%
